Test results taken from patent publication US12049450B2, “Pyridyloxy-carboxylate derivative and preparation method therefor, herbicidal composition, and use” (Qingdao Kingagroot Chemical Compound Co., Ltd., priority 2018, dated 2024).

Tests used:
Assay in all cases: Post-emergence test experiment (greenhouse pot, spray at 2-3 leaf stage)
Assay type in all cases: in vivo
Conditions in all cases: 1000 g/ha; post-emergence spray at 2-3 leaf stage; assessed after 3 weeks; fresh weight inhibition rate
Monochoria vaginalis = system: Monochoria vaginalis
In short: (§1)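 Activity graded levels 0-5 by fresh-weight inhibition (level 5 above 85%, level 0 below 5%), assessed 3 weeks after treatment. Plants grown in greenhouse pots were sprayed post-emergence at 2-3 leaves using acetone/tween-80 solutions with methyl oleate synergist (1.5 L/ha).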

Digitaria sanguinalis = system: Digitaria sanguinalis
In short: as §1

Galium spurium = system: Galium spurium
In short: as §1

Echinochloa crusgalli = system: Echinochloa crusgalli
In short: as §1

Abutilon theophrasti = system: Abutilon theophrasti
In short: as §1

SMILES | Activity level (growth inhibition rate) Monochoria Vaginalis (Monochoria vaginalis) | Activity level (growth inhibition rate) Digitaria sanguinalis (Digitaria sanguinalis) | Activity level (growth inhibition rate) Galium spurium (Galium spurium) | Activity level (growth inhibition rate) Echinochloa crusgalli (Echinochloa crusgalli) | Activity level (growth inhibition rate) Abutilon theophrasti (Abutilon theophrasti)
Cc1ccccc1COC(=O)C(C)Oc1nc(F)c(Cl)c(N)c1Cl (stereo not drawn) [Compound 69] | 5 (Level 5: the growth inhibition rate is greater than 85%) | 5 (Level 5: the growth inhibition rate is greater than 85%) | 5 (Level 5: the growth inhibition rate is greater than 85%) | 5 (Level 5: the growth inhibition rate is greater than 85%) | 5 (Level 5: the growth inhibition rate is greater than 85%)
CC(Oc1nc(F)c(Cl)c(N)c1Cl)C(=O)SCc1cccc(C(C)C)c1 (stereo not drawn) [Compound 71] | 5 (Level 5: the growth inhibition rate is greater than 85%) | 5 (Level 5: the growth inhibition rate is greater than 85%) | 5 (Level 5: the growth inhibition rate is greater than 85%) | 5 (Level 5: the growth inhibition rate is greater than 85%) | 5 (Level 5: the growth inhibition rate is greater than 85%)
CC(Oc1nc(F)c(Cl)c(N)c1Cl)C(=O)OCc1ccc(C(C)C)cc1 (stereo not drawn) [Compound 72] | 5 (Level 5: the growth inhibition rate is greater than 85%) | 5 (Level 5: the growth inhibition rate is greater than 85%) | 5 (Level 5: the growth inhibition rate is greater than 85%) | 5 (Level 5: the growth inhibition rate is greater than 85%) | 5 (Level 5: the growth inhibition rate is greater than 85%)
C/C=C/c1ccc(CSC(=O)C(C)Oc2nc(F)c(Cl)c(N)c2Cl)cc1 (stereo not drawn) [Compound 73] | 5 (Level 5: the growth inhibition rate is greater than 85%) | 5 (Level 5: the growth inhibition rate is greater than 85%) | 5 (Level 5: the growth inhibition rate is greater than 85%) | 5 (Level 5: the growth inhibition rate is greater than 85%) | 5 (Level 5: the growth inhibition rate is greater than 85%)
CC(Oc1nc(F)c(Cl)c(N)c1Cl)C(=O)OCc1ccc(C2CC2)cc1 (stereo not drawn) [Compound 74] | 5 (Level 5: the growth inhibition rate is greater than 85%) | 5 (Level 5: the growth inhibition rate is greater than 85%) | 5 (Level 5: the growth inhibition rate is greater than 85%) | 5 (Level 5: the growth inhibition rate is greater than 85%) | 5 (Level 5: the growth inhibition rate is greater than 85%)
CC(Oc1nc(F)c(Cl)c(N)c1Cl)C(=O)OC(C)c1ccc(Br)cc1 (stereo not drawn) [Compound 77] | 5 (Level 5: the growth inhibition rate is greater than 85%) | 5 (Level 5: the growth inhibition rate is greater than 85%) | 5 (Level 5: the growth inhibition rate is greater than 85%) | 5 (Level 5: the growth inhibition rate is greater than 85%) | 5 (Level 5: the growth inhibition rate is greater than 85%)
CC(Oc1nc(F)c(Cl)c(N)c1Cl)C(=O)OCc1cccc(I)c1 (stereo not drawn) [Compound 78] | 5 (Level 5: the growth inhibition rate is greater than 85%) | 5 (Level 5: the growth inhibition rate is greater than 85%) | 5 (Level 5: the growth inhibition rate is greater than 85%) | 5 (Level 5: the growth inhibition rate is greater than 85%) | 5 (Level 5: the growth inhibition rate is greater than 85%)
CC(Oc1nc(F)c(Cl)c(N)c1Cl)C(=O)OCc1cc(F)ccc1F (stereo not drawn) [Compound 79] | 5 (Level 5: the growth inhibition rate is greater than 85%) | 5 (Level 5: the growth inhibition rate is greater than 85%) | 5 (Level 5: the growth inhibition rate is greater than 85%) | 5 (Level 5: the growth inhibition rate is greater than 85%) | 5 (Level 5: the growth inhibition rate is greater than 85%)
CC(Oc1nc(F)c(Cl)c(N)c1Cl)C(=O)OCc1cccc(Cl)c1Cl (stereo not drawn) [Compound 80] | 5 (Level 5: the growth inhibition rate is greater than 85%) | 5 (Level 5: the growth inhibition rate is greater than 85%) | 5 (Level 5: the growth inhibition rate is greater than 85%) | 5 (Level 5: the growth inhibition rate is greater than 85%) | 5 (Level 5: the growth inhibition rate is greater than 85%)
CC(Oc1nc(F)c(Cl)c(N)c1Cl)C(=O)SCc1cc(F)cc(Cl)c1 (stereo not drawn) [Compound 81] | 5 (Level 5: the growth inhibition rate is greater than 85%) | 5 (Level 5: the growth inhibition rate is greater than 85%) | 5 (Level 5: the growth inhibition rate is greater than 85%) | 5 (Level 5: the growth inhibition rate is greater than 85%) | 5 (Level 5: the growth inhibition rate is greater than 85%)
COc1cccc(F)c1CSC(=O)C(C)Oc1nc(F)c(Cl)c(N)c1Cl (stereo not drawn) [Compound 84] | 5 (Level 5: the growth inhibition rate is greater than 85%) | 5 (Level 5: the growth inhibition rate is greater than 85%) | 5 (Level 5: the growth inhibition rate is greater than 85%) | 5 (Level 5: the growth inhibition rate is greater than 85%) | 5 (Level 5: the growth inhibition rate is greater than 85%)
CC(Oc1nc(F)c(Cl)c(N)c1Cl)C(=O)OCc1cc([N+](=O)[O-])ccc1F (stereo not drawn) [Compound 86] | 5 (Level 5: the growth inhibition rate is greater than 85%) | 5 (Level 5: the growth inhibition rate is greater than 85%) | 5 (Level 5: the growth inhibition rate is greater than 85%) | 5 (Level 5: the growth inhibition rate is greater than 85%) | 5 (Level 5: the growth inhibition rate is greater than 85%)
CC(Oc1nc(F)c(Cl)c(N)c1Cl)C(=O)SCc1cccc(C(=O)O)c1 (stereo not drawn) [Compound 87] | 5 (Level 5: the growth inhibition rate is greater than 85%) | 5 (Level 5: the growth inhibition rate is greater than 85%) | 5 (Level 5: the growth inhibition rate is greater than 85%) | 5 (Level 5: the growth inhibition rate is greater than 85%) | 5 (Level 5: the growth inhibition rate is greater than 85%)
CC(Oc1nc(F)c(Cl)c(N)c1Cl)C(=O)OCc1cccc(O)c1 (stereo not drawn) [Compound 89] | 5 (Level 5: the growth inhibition rate is greater than 85%) | 5 (Level 5: the growth inhibition rate is greater than 85%) | 5 (Level 5: the growth inhibition rate is greater than 85%) | 5 (Level 5: the growth inhibition rate is greater than 85%) | 5 (Level 5: the growth inhibition rate is greater than 85%)
CC(Oc1nc(F)c(Cl)c(N)c1Cl)C(=O)OCc1cccc(N)c1 (stereo not drawn) [Compound 90] | 5 (Level 5: the growth inhibition rate is greater than 85%) | 5 (Level 5: the growth inhibition rate is greater than 85%) | 5 (Level 5: the growth inhibition rate is greater than 85%) | 5 (Level 5: the growth inhibition rate is greater than 85%) | 5 (Level 5: the growth inhibition rate is greater than 85%)
